Assay [1] deals with vasopressin V2 receptor subtype (V2R) (Homo sapiens, UniProt P30518). Nature of the assay: 3H-AVP competition binding on V2R membranes. As to conditions: for Ki: Ki (nM ± SEM), binding affinity of the ligands for V2R, 3H-AVP competition, mean ± SEM; for V2R inhibition, 3H-AVP binding (FIG. 15): compared with U-Da2a.
Description: Reaction mixtures contained 50 mM Tris-HCl, pH 7.4, 10 mM MgCl2 and 1 g/L BSA in a final volume of 100 μL. Plates were incubated for 3 h at room temperature. Binding reactions were stopped by filtration through a GF/C filter pre-soaked in 0.5% polyethyleneimine on a cell harvester ([sequence], Courtaboeuf, France) and plates were dried. […] A one-site inhibition mass action curve was fitted to inhibition binding data using Kaleidagraph (SYNERGY SOFTWARE, Reading, Pa., USA).
The target of another assay is V2R (Homo sapiens, UniProt P30518). The settings on record: vaptans, background; cited from earlier work.

We go through seven compounds from patent US9631001B2, “Peptide antagonists of the vasopressin-2 receptor” (COMMISSARIAT A L'ENERGIE ATOMIQUE ET AUX ENERGIES …, priority 2012, dated 2017).

Bridges are numbered along the chain shown (N, C = ends). Where no end group is shown, it is not given here.

Broadly, the Ki is the equilibrium dissociation constant of an inhibitor or competing ligand from its target. For “RPKFCNLPVKPGPCNGFFSAFYYSQKTNKCHSFTYGGCKGNANRFSTIEKCRRTCVG (disulfide 5-55, 14-38, 30-51) [U-Da2a-S3K]”, in assay [1], the Ki came to 1.29 ± 0.34 nM. Consider “Dendrotoxin-K [DTx-K, reference compound]”, for which the “V2R inhibition, 3H-AVP binding (FIG. 15)” value in assay [1] is recorded as “no V2R inhibition”. Take `CCOc1ccc2c(c1)C1(CCC(OCCN3CCOCC3)CC1)C(=O)N2S(=O)(=O)c1ccc(C(=O)NC(C)(C)C)cc1OC` (stereo not shown) [Satavaptan]: on V2R, the V2/V1a selectivity index was 112.

The compound “SFCNLPVKPGPCNGFFSAFYYSQKTNKCHSFTYGGCKGNANRFSTIEKCRRTC (disulfide 3-53, 12-36, 28-49) [U-Da2a-delta2 N-ter/delta2 C-ter]” displayed a Ki in assay [1] of 3.23 ± 2.31 nM. For the compound “DTx-E-R55 (LQHRTFCKLPAEPGPCKASIPAFYYNWAAKKCQLFHYGGCKGNANRFSTIEKCRRACVG; listed as Dendroaspis polylepis) [reference compound]”, the “V2R inhibition, 3H-AVP binding (FIG. 15)” value in assay [1] is given as “not able to block V2R”. Regarding `Cc1nc2c([nH]1)-c1ccccc1N(C(=O)c1ccc(NC(=O)c3ccccc3-c3ccccc3)cc1)CC2` [Conivaptan], at V2R, the V2/V1a selectivity index is recorded as 0.15.

“CNLPVKPGPCNGFFSAFYYSQKTNKCHSFTYGGCKGNANRFSTIEKCRRTCVG (disulfide 1-51, 10-34, 26-47) [U-Da2a-delta4 N-ter]” came in with a Ki in assay [1] of 1.57 ± 1.2 nM.
